The values that follow are results of earlier work, collected in publication PMC2483489 (Acta Crystallographica Section D: Biological Crystallography, 2006).

One data set relates to KDR. The note with it: statement in words, no reference given.
Another data set concerns Flt-3. The note with it: statement in words, no reference given.
The next data set relates to Irk. The note with it: statement in words, no reference given.
Another data set deals with c-Kit. The note with it: ref Mol et al., 2004.
Data set [1] has as its system resistance mutants isolated from relapsed imatinib patients. The note with it: ref Weisberg et al., 2006, Kantarjian et al.

As to `Cc1ccc(NC(=O)c2ccc(CN3CCN(C)CC3)cc2)cc1Nc1nccc(-c2cccnc2)n1` [Imatinib, imatinib], in the data set with KDR, the “Binding to KDR” value is listed as “does not bind”. Moreover, the “Binding to Flt-3” value with Flt-3 is given as “does not bind”. Besides, the “Binding to Irk” value in the data set with Irk is “does not bind”. For the same compound, the “Binding to c-Kit” value in the data set on c-Kit is “does bind”.
As to `Cc1cn(-c2cc(NC(=O)c3ccc(C)c(Nc4nccc(-c5cccnc5)n4)c3)cc(C(F)(F)F)c2)cn1` [NVP-AMN107, nilotinib], in data set [1], the “Activity against imatinib-resistance mutants” value is “active against all but one of the resistance mutants”.
